# Assay results: patent US9468670B2, “Melatonin-based treatment and diagnosis of bile duct disease” (Texas A&M University System, priority 2011, dated 2016)
# Legend:
# large cholangiocytes [1] = experiment: PCNA expression and PKA, ERK1/2 phosphorylation (immunoblots) in purified large cholangiocytes from treated BDL rats; type: in vivo, rat
# Protocol: Cholangiocyte proliferation was evaluated by immunoblots (Francis et al., 2008) by determination of PCNA protein expression (measured as ratio to b-actin protein expression) (Francis et al., 2008), and the phosphorylation of cAMP-dependent PKA and ERK1/2 (expressed as ratio to protein expression of the corresponding total proteins) in protein ([…]) from whole cell lysate from spleen (positive control) and large cholangiocytes from BDL rats treated with vehicle or melatonin. The intensity of the bands was determined by scanning video densitometry using the phospho-imager Storm 860 and the ImageQuant TL software version 2003.02 (GE Healthcare).
# large cholangiocytes [2] = experiment: Secretin-stimulated cAMP levels (RIA) in purified large cholangiocytes from treated BDL rats; type: in vivo, rat; conditions: cholangiocytes from BDL rats treated with melatonin for 1 week; secretin 100 nM, 5 minutes
# Protocol: The effect of secretin on cAMP levels was evaluated in purified large cholangiocytes and bile and bicarbonate secretion was evaluated in bile fistula rats, two functional indices of cholangiocyte hyperplasia (Alpini et al., 1998; Alpini et al., 1988; LeSage et al., 1999). Following purification, large cholangiocytes (1×10^5 cells) were incubated for 1 hour at 37° C. (Ishii et al., 1989) before stimulation with 0.2% bovine serum albumin (BSA) or secretin (100 nM) for 5 minutes at room temperature (Kato et al., 1992; LeSage et al., 1999; LeSage et al., 2004) before evaluation of cAMP levels by RIA (Alpini et al., 1998; Kato et al., 1992; LeSage et al., 1999; LeSage et al., 2004). For the studies of biliary physiology, after anesthesia, rats were surgically prepared for bile collection as described by us (Alpini et al., 1988). When steady-state bile flow was reached (60-70 minutes from the intravenous infusion of Krebs-Ringer-Henseleit solution, KRH), the animals were infused with secretin (100 nM) (LeSage et al., 1999; LeSage et al., 2004) for 30 minutes followed by IV infusion of KRH for 30 minutes (LeSage et al., 1999; LeSage et al., 2004). Bicarbonate concentration in bile was determined by an ABL™ 520 Blood Gas System (Radiometer Medical A/S, Copenhagen, Denmark).
# CCA = experiment: Sensitization of CCA to 5-fluorouracil and gemcitabine cytotoxicity in vitro; type: cell-based
# [3] = rat, in vivo, 1 mg/kg/day
# Protocol: (§1) In separate experiments, normal rats treated with Vivo-Morpholino sequences of AANAT (5′-[…] (SEQ ID NO:1), to reduce the biliary expression of AANAT) or Morpholino mismatched (5′-[…] (SEQ ID NO:2)) (Gene Tools LCC) (1 mg/Kg BW/day) for 1 week via an implanted portal vein catheter. Serum, liver tissue, cholangiocytes, kidney, spleen, small intestine, stomach and heart were collected. Since our goal was to knock-down AANAT expression in the liver without inhibiting AANAT expression in other organs, we used a lower dose (1 mg/Kg/day) of Vivo-Morpholino than that described in the original study (3.0 mg/kg/day (Arora et al., 2002). This approach minimizes the amount of Vivo-Morpholino that circulates outside of the liver after slow infusion into the portal vein. See below for the surgical procedure for the implantation of the portal vein catheter by which AANAT Vivo-Morpholino or Morpholino mismatched was administered.
# Biliary proliferation was determined by measurement of the percentage of PCNA-positive cholangiocytes by immunohistochemistry, and intrahepatic bile duct mass (IBDM) by immunohistochemistry for CK-19 (Mancinelli et al., 2010). Biliary apoptosis was evaluated by semiquantitative terminal deoxynucleotidyltransferase biotin-dUTP nick-end labeling (TUNEL) kit (Chemicon International, Inc., Temecula, Calif.) (Mancinelli et al., 2010). IBDM was determined as the area occupied by CK-19 positive-bile duct/total area×100 (Mancinelli et al., 2010). The morphological changes/damage in liver, spleen, kidney, heart, stomach, and small intestine were evaluated from AANAT Vivo-Morpholino- or mismatch-treated rats by H&E staining. The serum levels of the transaminases, glutamate pyruvate transaminases (SGPT) and glutamic oxaloacetic transaminase (SGOT), alkaline phosphatase (ALP) and total bilirubin were evaluated using a Dimension RxL Max Integrated Chemistry system (Dade Behring Inc., Deerfield Ill.), Chemistry Department, Scott & White.
# [4] = tested on: SR, CFTR, Cl−/HCO3− AE2, VEGF-A/C; experiment: Expression of PCNA, SR, CFTR, Cl−/HCO3− AE2, VEGF-A/C in liver sections, liver tissue and cholangiocytes of Morpholino-treated rats; type: in vivo, rat; conditions: normal rats, 1 week
# Protocol: as §1
# By real-time PCR (Francis et al., 2008), the expression of PCNA, SR, CFTR, Cl^−/HCO3^− AE2, VEGF-A/C was evaluated in total RNA from: (i) cholangiocytes from normal rats, and BDL rats treated with melatonin; and (ii) liver tissue and cholangiocytes from rats treated with mismatch or AANAT Vivo-Morpholino for 1 week. A ΔΔCT analysis was obtained using normal cholangiocytes or normal total liver as control samples (Francis et al., 2008). The primers for rat PCNA, SR, CFTR, Cl^−/HCO3^− AE2, VEGF-A/C (SABiosciences) were designed according to the NCBI GenBank Accession numbers: NM_022381 (PCNA); NM_031115 (SR); NM_017048 (Cl^−/HCO3^− AE2); XM_001059206 (CFTR); NM_031836 (VEGF-A); and NM_053653 (VEGF-C). The percentage of cholangiocytes positive for SR, CFTR, Cl^−/HCO3^− AE2 and VEGF-A/C was evaluated in liver sections: when 0%-5% of bile ducts were positive a negative score was assigned; a +/−score was assigned when 6%-10% of ducts were positive; a +score was assigned when 11%-30% of bile ducts were positive (Glaser et al., 2009).
Compound,PCNA expression in large cholangiocytes (large cholangiocytes [1]; melatonin-treated BDL rats vs. BDL control rats),Phosphorylation of cAMP-dependent PKA and ERK2 (but not ERK1) in large cholangiocytes (large cholangiocytes [1]; melatonin-treated BDL rats vs. BDL controls),Effect of secretin on cAMP levels of large cholangiocytes (large cholangiocytes [2]),Sensitization of CCA to the cytotoxic effects of 5-fluorouracil (5-FU) (CCA) [fold],Sensitization of CCA to the cytotoxic effects of gemcitabine (CCA) [fold],ALP [3] [Units/L],SGOT [3] [Units/L],SGPT [3] [Units/L],Total bilirubin [3] [mg/L],Immunoreactivity of cholangiocytes to CFTR [4],Immunoreactivity of cholangiocytes to Cl−HCO3− AE2 [4],Immunoreactivity of cholangiocytes to SR [4],Immunoreactivity of cholangiocytes to VEGF-A [4],Immunoreactivity of cholangiocytes to VEGF-C [4]
COc1ccc2[nH]cc(CCNC(C)=O)c2c1 [melatonin],decreased,decreased,did not enhance,~2,~2,,,,,,,,,
"AANAT Vivo-Morpholino: Vivo-Morpholino sequence of AANAT 5′-GTTCCCCAGCTTTGGAAGTGGTCCC (SEQ ID NO:1), to reduce the biliary expression of AANAT (all phosphorodiamidate morpholino (PMO); Vivo-Morpholino delivery moiety attached, position not given here, further chemistry not fully specified)",,,,,,230.2 ± 5.2,148.5 ± 22.5,72.25 ± 0.2,<0.1,+ (a +score was assigned when 11%-30% of bile ducts were positive),+ (a +score was assigned when 11%-30% of bile ducts were positive),+ (a +score was assigned when 11%-30% of bile ducts were positive),+ (a +score was assigned when 11%-30% of bile ducts were positive),+ (a +score was assigned when 11%-30% of bile ducts were positive)
